Measured values: PMC11110727, “Exploiting thiol-functionalized benzosiloxaboroles for achieving diverse substitution patterns – synthesis, characterization and biological evaluation of promising antibacterial agents” (RSC Medicinal Chemistry, 2024)
Converted amounts (≈) assume the structure as drawn.

Key:
[1] = tested on: Human normal lung fibroblasts MRC-5; experiment: MTT-based viability (cytotoxicity) assay; conditions: MRC-5, MTT, 48 h
Protocol: To evaluate the cytotoxic effect of the tested compounds, an MTT-based assay was performed. […] Moreover, based on available IC50 and MIC (for standard and clinical S. aureus MRSA strains) values, the selectivity index (SI) was calculated for several compounds as the IC50/MIC ratio (Table 5).[60]
MRC-5 pd30 human fibroblasts (ECACC) were cultured in MEME, Minimum Essential Medium Eagle (Merck), supplemented with 10% fetal bovine serum (Merck), 2 mM L-glutamine, antibiotics (100 U mL^−1 penicillin, 100 μg mL^−1 streptomycin, Merck) and 1% non-essential amino acids (Merck). Cells were grown in 75 cm^2 cell culture flasks (Sarstedt), in a humidified atmosphere of CO2/air (5/95%) at 37 °C. MTT-based viability assay was conducted as described previously.[26] Optical densities were measured at 570 nm using a BioTek microplate reader. All measurements were carried out in three replicates and the results expressed as a percent of viable cells versus control cells. […] The selectivity index (SI) was calculated as [drawing 30] , in accordance with previously described protocols.[60]

[2] = tested on: C. albicans ATCC 90028; experiment: Antifungal activity: MIC/MFC, disc-diffusion; type: cell-based, Candida albicans
Protocol: (§1) Direct antimicrobial activity was determined against the following standard strains: (1) Gram-positive cocci: methicillin-sensitive Staphylococcus aureus ATCC 6538P (MSSA), methicillin-resistant S. aureus subsp. aureus ATCC 43300 (MRSA), S. epidermidis ATCC 12228, Enterococcus faecium ATCC 6057, E. faecalis ATCC 29212, Bacillus subtilis ATCC 6633; (2) Gram-negative bacteria from Enterobacteriales order: Klebsiella pneumoniae ATCC 13883, Escherichia coli ATCC 25922, Enterobacter cloacae DSM 6234, Proteus mirabilis ATCC 12453, Serratia marcescens ATCC 13880; (3) Gram-negative non-fermentative rods: Acinetobacter baumannii ATCC 19606, Pseudomonas aeruginosa ATCC 27853, Stenotrophomonas maltophilia ATCC 12714, S. maltophilia ATCC 13637, Burkholderia cepacia ATCC 25416, Bordetella bronchiseptica ATCC 4617; (4) yeasts: Candida albicans ATCC 90028, C. krusei ATCC 6258, C. parapsilosis ATCC 22019, C. tropicalis (Castellani) Berkhout ATCC 750, C. tropicalis IBA 171, C. guilliermondii IBA 155, and Saccharomyces cerevisiae ATCC 9763. Moreover, 5 clinical strains of methicillin-resistant S. aureus were also included: NMI 664 K, NMI 1576 K, NMI 1712 K, NMI 1991 K, and NMI 2541 K. All strains were stored at −80 °C. Prior to testing, each bacterial strain was subcultured twice on tryptic soy agar TSA (bioMerieux) medium and yeast strains on Sabouraud dextrose agar (bioMerieux) for 24–48 h at 30 °C to ensure viability. The antimicrobial activity was evaluated as previously described[26] by the disc-diffusion method and the MIC determination assays according to the EUCAST (ref. [71] and [72]) and CLSI (ref. [53] and [73]) recommendations. Assessment of bactericidal (MBC) and fungicidal (MFC) activities was performed according to the CLSI recommendations.[54,74] The following reference agents were used: fluconazole (in the case of fungi), linezolid (for Gram-positive bacteria), and nitrofurantoin (for Gram-negative rods). The new benzosiloxaboroles were dissolved in DMSO (Sigma).

[3] = tested on: C. krusei ATCC 6258; experiment: Antifungal activity: MIC/MFC, disc-diffusion; type: cell-based
Protocol: as §1, with “The following reference agents were used: fluconazole (in the case of fungi), linezolid (for Gram-positive bacteria), and nitrofurantoin (for Gram-negative rods).” left out

[4] = tested on: C. guilliermondii IBA 155; experiment: Antifungal activity: MIC/MFC, disc-diffusion; type: cell-based
Protocol: as §1

[5] = tested on: C. parapsilosis ATCC 22019; experiment: Antifungal activity: MIC/MFC, disc-diffusion; type: cell-based
Protocol: as §1

[6] = tested on: C. tropicalis ATCC 750; experiment: Antifungal activity: MIC/MFC, disc-diffusion; type: cell-based
Protocol: as §1

[7] = tested on: C. tropicalis IBA 171; experiment: Antifungal activity: MIC/MFC, disc-diffusion; type: cell-based
Protocol: as §1

[8] = tested on: S. cerevisiae ATCC 9763; experiment: Antifungal activity: MIC/MFC, disc-diffusion; type: cell-based, Saccharomyces cerevisiae
Protocol: as §1

[9] = tested on: E. coli ATCC 25922; experiment: Antibacterial activity: MIC/MBC, MIC with PAβN, disc-diffusion; type: cell-based, Escherichia coli; conditions: E. coli ATCC 25922
Protocol: as §1, with “The following reference agents were used: fluconazole (in the case of fungi), linezolid (for Gram-positive bacteria), and nitrofurantoin (for Gram-negative rods).” left out
(§2) Considering that the MDR efflux pumps often contribute to Gram-negative rod resistance, the MIC values of studied agents, with or without the pump inhibitor, PAβN (20 μg mL^−1) (Sigma), were determined.[75] The MIC was determined using Mueller–Hinton II broth medium (MHB) (Becton Dickinson) by the broth microdilution method, according to the CLSI guideliness.[53] To minimize the influence of PAβN on the destabilization of bacterial cell covers, the tests were conducted in the presence of 1 mM MgSO4 (Sigma).[76] At least a 4-fold reduction in the MIC value after the addition of PAβN was considered significant.[56,77]

[10] = tested on: K. pneumoniae ATCC 13883; experiment: as above; type: cell-based, Klebsiella pneumoniae; conditions: K. pneumoniae ATCC 13883
Protocol: as §1, with “The following reference agents were used: fluconazole (in the case of fungi), linezolid (for Gram-positive bacteria), and nitrofurantoin (for Gram-negative rods).” left out
as §2

[11] = tested on: P. mirabilis ATCC 12453; experiment: as above; type: cell-based, Proteus mirabilis; conditions: P. mirabilis ATCC 12453
Protocol: as §1, with “The following reference agents were used: fluconazole (in the case of fungi), linezolid (for Gram-positive bacteria), and nitrofurantoin (for Gram-negative rods).” left out
as §2

[12] = tested on: E. cloacae DSM 6234; experiment: as above; type: cell-based, Enterobacter cloacae; conditions: E. cloacae DSM 6234
Protocol: as §1, with “The following reference agents were used: fluconazole (in the case of fungi), linezolid (for Gram-positive bacteria), and nitrofurantoin (for Gram-negative rods).” left out
as §2

[13] = tested on: S. marcescens ATCC 13880; experiment: as above; type: cell-based, Serratia marcescens; conditions: S. marcescens ATCC 13880
Protocol: as §1, with “The following reference agents were used: fluconazole (in the case of fungi), linezolid (for Gram-positive bacteria), and nitrofurantoin (for Gram-negative rods).” left out
as §2

[14] = tested on: A. baumannii ATCC 19606; experiment: as above; type: cell-based, Acinetobacter baumannii; conditions: A. baumannii ATCC 19606
Protocol: as §1, with “The following reference agents were used: fluconazole (in the case of fungi), linezolid (for Gram-positive bacteria), and nitrofurantoin (for Gram-negative rods).” left out
as §2

[15] = tested on: P. aeruginosa ATCC 27853; experiment: as above; type: cell-based; conditions: Pseudomonas aeruginosa, ATCC27853, P. aeruginosa ATCC 27853
Protocol: as §1, with “The following reference agents were used: fluconazole (in the case of fungi), linezolid (for Gram-positive bacteria), and nitrofurantoin (for Gram-negative rods).” left out
as §2

[16] = tested on: S. maltophilia ATCC 12714; experiment: as above; type: cell-based, Stenotrophomonas maltophilia; conditions: Stenotrophomonas maltophilia, ATCC12714, S. maltophilia ATCC 12714
Protocol: as §1, with “The following reference agents were used: fluconazole (in the case of fungi), linezolid (for Gram-positive bacteria), and nitrofurantoin (for Gram-negative rods).” left out
as §2

[17] = tested on: S. maltophilia ATCC 13637; experiment: as above; type: cell-based, Stenotrophomonas maltophilia; conditions: Stenotrophomonas maltophilia, ATCC13637, S. maltophilia ATCC 13637
Protocol: as §1, with “The following reference agents were used: fluconazole (in the case of fungi), linezolid (for Gram-positive bacteria), and nitrofurantoin (for Gram-negative rods).” left out
as §2

[18] = tested on: B. cepacia ATCC 25416; experiment: Antibacterial activity: MIC/MBC, disc-diffusion; type: cell-based, Burkholderia cepacia; conditions: B. cepacia ATCC 25416
Protocol: as §1, with “The following reference agents were used: fluconazole (in the case of fungi), linezolid (for Gram-positive bacteria), and nitrofurantoin (for Gram-negative rods).” left out
as §2

[19] = tested on: B. bronchiseptica ATCC 4617; experiment: Antibacterial activity: MIC/MBC, disc-diffusion; type: cell-based, Bordetella bronchiseptica; conditions: Bordetella bronchiseptica, ATCC4617, B. bronchiseptica ATCC 4617
Protocol: as §1, with “The following reference agents were used: fluconazole (in the case of fungi), linezolid (for Gram-positive bacteria), and nitrofurantoin (for Gram-negative rods).” left out
as §2

[20] = (-) = zone not observed, paper discs 9 mm

SMILES: N.N.[Cl][Pt][Cl] [Cisplatin, reference compound]
- IC50 [1]: 1.9 µg/mL

SMILES: OC(Cn1cncn1)(Cn1cncn1)c1ccc(F)cc1F [FL, fluconazole, reference compound]
- diameter of inhibition zone ([2]; C. albicans ATCC 90028, (-) = zone not observed, paper discs 9 mm): 43 mm
- MIC ([2]; Candida albicans, ATCC90028, read-out: MIC): 1 µg/mL (≈ 3.27 µM)
- diameter of inhibition zone ([3]; C. krusei ATCC 6258, (-) = zone not observed, paper discs 9 mm): 16 mm
- MIC ([3]; Pichia kudriavzevii, ATCC6258, read-out: MIC): 64 µg/mL (≈ 209 µM)
- diameter of inhibition zone ([4]; C. guilliermondii IBA 155, (-) = zone not observed, paper discs 9 mm): 40 mm
- MIC ([4]; Meyerozyma guilliermondii, IBA155, read-out: MIC): 0.75 µg/mL (≈ 2.45 µM)
- diameter of inhibition zone ([5]; C. parapsilosis ATCC 22019, (-) = zone not observed, paper discs 9 mm): 32 mm
- MIC ([5]; Lodderomyces parapsilosis, ATCC22019, read-out: MIC): 2 µg/mL (≈ 6.53 µM)
- diameter of inhibition zone ([6]; C. tropicalis ATCC 750, (-) = zone not observed, paper discs 9 mm): 40 mm
- MIC ([6]; Candida tropicalis, ATCC750, read-out: MIC): 0.38 µg/mL (≈ 1.24 µM)
- diameter of inhibition zone ([7]; C. tropicalis IBA 171, (-) = zone not observed, paper discs 9 mm): 39 mm
- MIC ([7]; Candida tropicalis, IBA171, read-out: MIC): 0.38 µg/mL (≈ 1.24 µM)
- diameter of inhibition zone ([8]; S. cerevisiae ATCC 9763, (-) = zone not observed, paper discs 9 mm): 12 mm
- MIC ([8]; Saccharomyces cerevisiae, ATCC9763, read-out: MIC): 16 µg/mL (≈ 52.2 µM)

SMILES: O=C1CN(/N=C/c2ccc([N+](=O)[O-])o2)C(=O)N1 [NF, nitrofurantoin, reference compound]
- diameter of inhibition zone [9, 20]: 24 mm
- MBC ([9]; Escherichia coli, ATCC25922): 8 µg/mL (≈ 33.6 µM)
- MIC ([9]; Escherichia coli, ATCC25922, read-out: MIC): 8 µg/mL (≈ 33.6 µM)
- diameter of inhibition zone [10, 20]: 23 mm
- MBC ([10]; Klebsiella pneumoniae, ATCC13883): 32 µg/mL (≈ 134 µM)
- MIC ([10]; Klebsiella pneumoniae, ATCC13883, read-out: MIC): 32 µg/mL (≈ 134 µM)
- diameter of inhibition zone [11, 20]: 9 mm
- MBC ([11]; Proteus mirabilis, ATCC12453): > 128 µg/mL
- MIC ([11]; Proteus mirabilis, ATCC12453, read-out: MIC): 128 µg/mL (≈ 537 µM)
- diameter of inhibition zone [12, 20]: 17 mm
- MBC ([12]; Enterobacter cloacae, DSM6234): 32 µg/mL (≈ 134 µM)
- MIC ([12]; Enterobacter cloacae, DSM6234, read-out: MIC): 32 µg/mL (≈ 134 µM)
- diameter of inhibition zone [13, 20]: 12 mm
- MBC ([13]; Serratia marcescens, ATCC13880): > 128 µg/mL
- MIC ([13]; Serratia marcescens, ATCC13880, read-out: MIC): 128 µg/mL (≈ 537 µM)
- diameter of inhibition zone [14, 20]: 9 mm
- MBC ([14]; Acinetobacter baumannii, ATCC19606): 128 µg/mL (≈ 537 µM)
- MIC ([14]; Acinetobacter baumannii, ATCC19606, read-out: MIC): 64 µg/mL (≈ 269 µM)
- MBC [15]: > 128 µg/mL
- MIC ([15]; read-out: MIC): > 128 µg/mL
- MBC [16]: > 128 µg/mL
- MIC ([16]; read-out: MIC): 128 µg/mL (≈ 537 µM)
- MBC [17]: > 128 µg/mL
- MIC ([17]; read-out: MIC): 128 µg/mL (≈ 537 µM)
- diameter of inhibition zone [18, 20]: 12 mm
- MBC ([18]; Burkholderia cepacia, ATCC25416): 32 µg/mL (≈ 134 µM)
- MIC ([18]; Burkholderia cepacia, ATCC25416, read-out: MIC): 32 µg/mL (≈ 134 µM)
- MBC [19]: 128 µg/mL (≈ 537 µM)
- MIC ([19]; read-out: MIC): 64 µg/mL (≈ 269 µM)
